Measured values from patent publication US20140378395A1, “Peptides for the Treatment of Hearing” (13Therapeutics, Inc., priority 2011, published 2014).
Non-standard residues stand in square brackets, D forms with d. No end group written: not given here.

Columns and labels:
[1] = system: TNF-α secretion from RAW264.7 cells; experiment: Inhibition of CpG-ODN-induced TNF-α secretion from RAW264.7 cells (ELISA); assay type: cell-based, murine; conditions: for activity compared with P13 (inhibition of TNF-α after stimulation of RAW264.7 cells with CpG): SAR, versus P13; for Percent Inhibition of TNF-α secretion, CpG Stimulation / Inhibition of TNF-α secretion (percent inhibition) / Percent Inhibition of TNF-α secretion: RAW264.7, 4 hours; for Percent Inhibition of TNF-α secretion, CpG Stimulation: 1.25 ug/ml CpG-ODN; for Inhibition of TNF-α secretion (percent inhibition) / Percent Inhibition of TNF-α secretion: 1 μg/ml CpG-ODN
Protocol: (§1) RAW264.7 cells were plated at 1.5×10^5 cells/well-3×10^5 cells/well in 48-well plates. After 24 hours, the cells were incubated with peptides at various concentrations at room temperature in triplicate either before, simultaneous with, or after activation with various PAMPs for 18 hours. Cell-free supernatants were analyzed for cytokines by ELISA, in quadruplicate. RAW264.7 cells were stimulated with either CpG-ODN (1 μg/ml or 1.25 μg/ml), LPS (about 1 ng/ml), Poly (I:C) (about 10 μg/ml), flagellin (about 5 ng/ml), or zymosan (about 10 μg/ml). Dose response curves were done with each PAMP to determine optimal stimulation concentration. For CpG-ODN stimulation, cells were incubated for 4 hours at 37° C., supernatants collected, and TNF-α measured by ELISA. Any cytokine involved in inflammatory disease mediated toll receptor signaling can be measured using similar assays.
The effect of several peptides on TNF-α secretion from RAW264.7 cells in response to stimulation by CpG-ODN was studied. Each peptide was initially tested at 3 concentrations, 37 μM, 22.2 μM, and 11.1 μM. […] The peptides were then tested at 11.1 μM, 7.4 μM, and 3.7 μM (Table 3). […] Cell viability was examined for each peptide at the concentrations tested for TNF-α inhibition.
(§2) Inhibition of TNF-α secretion by various T-peptides was examined. RAW264.7 cells were plated at 3×10^5 cells/well in 48-well plates. After 24 h the cells were incubated with peptide at various concentrations at room temperature in triplicate for 15 minutes and then stimulated with 1.25 ug/ml CpG-ODN or 1 ng/ml LPS. Cells were then incubated for 4 hours at 37° C., supernatants collected, and TNF-α measured by ELISA. Percent inhibition was calculated by comparing TNF-α secretion from cells incubated with peptide to control cells with no peptide treatment. The inhibitive effects of peptides T3 (SEQ ID NO: 319), T11 (SEQ ID NO: 327), T21 (SEQ ID NO: 337), T36 (SEQ ID NO: 352), T37 (SEQ ID NO: 353), T51 (SEQ ID NO: 367), and T52 (SEQ ID NO: 368) were compared to inhibition by an analogue of P13 (SEQ ID NO: 369) having a sequence of nine arginine residues at the C-terminus (P13-R^9 (SEQ ID NO: 378)). (Table 4).

[2] = system: TNF-α secretion from RAW264.7 cells; experiment: Inhibition of LPS-induced TNF-α secretion from RAW264.7 cells (ELISA); assay type: cell-based, murine; conditions: 1 ng/ml LPS, 4 hours
Protocol: as §1, §2

C3H/HeJ mice = experiment: Topical treatment in chronic otitis media (COM) model, ABR; assay type: in vivo, mouse
BALB/c mice [3] = experiment: Middle ear inflammation: heat-inactivated S. pneumoniae plus peptide injected into the middle ear, histology after 3 days; assay type: in vivo, mouse; conditions: single dose with heat-inactivated S. pneumoniae; paired t-tests
[4] = system: toll-like receptor-dependent signaling; experiment: Cytokine secretion / signaling in response to TLR activation in vitro; assay type: cell-based
Protocol: as §1

BALB/c mice [5] = experiment: LPS-induced septic shock model, pro-inflammatory mediators; assay type: in vivo; conditions: mouse model
Protocol: BALB/c mice are injected i.p. with PBS, LPS at about 100 μg/mouse/250 μl, or about 100 μg LPS plus various doses of peptides. Serum is collected at about 2 and about 6 hours after treatment and evaluated for the pro-inflammatory cytokines MIP-2 and TNF-α by ELISA, and for soluble ICAM-1.

[6] = system: TNF-α secretion from RAW264.7 cells; experiment: Inhibition of CpG-ODN-induced TNF-α secretion from RAW264.7 cells (ELISA); assay type: cell-based, murine; conditions: peptide 3.1 μM (Table 3), 1 μg/ml CpG-ODN, 4 hours
BALB/c mice [7] = experiment: Assay for crossing the tympanic membrane by FITC-labeled peptide; assay type: in vivo, mouse; conditions: 10 μg/30 μl dropped on ear, 10 minutes; AOM ears; fluorescent microscopy
Protocol: Three BALB/c mice at 8-12 weeks of age were anesthetized with ketamine (100 mg/kg) and xylazine (20 mg/kg) prior to administration of bacteria. A ventral midline incision was made in the neck, and the bulla exposed after blunt dissection. The middle ear was inoculated through the bony wall with approximately 3.5 μL of a bacterial suspension (heat inactivated S. pneumoniae 10^10 CFU/ml) with a thin needle. Both the right and left ears received bacteria by bulla injection.
After 24 hours, animals received an otoscopic exam using an operating microscope. Mice were anesthetized as described above, and the tympanic membrane was inspected for the presence or absence of the following three criteria for acute otitis media (AOM): 1) middle ear effusion behind the tympanic membrane; 2) change in color of the tympanic membrane from clear to red or white (indicating inflammation and/or purulence in the middle ear); and 3) change in position of the tympanic membrane from neutral to bulging or retracted.
Four ears met the criteria for AOM. FITC labeled peptide P13-R^9 (SEQ ID NO: 378) (10 μg/30 μl) was dropped onto the middle ear. The peptide was allowed to absorb for 10 minutes. After 10 minutes, the external ear canal was flushed twice, and blotted to get rid of any remaining peptide. […]

Row | Substance | Percent Inhibition of TNF-α secretion, LPS Stimulation ([2]; peptide 7.4 uM) [%] | Percent Inhibition of TNF-α secretion, LPS Stimulation ([2]; peptide 11.1 uM) [%] | Percent Inhibition of TNF-α secretion, LPS Stimulation ([2]; peptide 22.2 uM) [%] | Inhibition of TNF-α secretion (percent inhibition) ([1]; peptide 7 μM (Table 3)) [%] | Inhibition of TNF-α secretion (percent inhibition) ([1]; peptide 11 μM (Table 3)) [%] | Percent Inhibition of TNF-α secretion ([1]; peptide 11.1 μM) [%] | Percent Inhibition of TNF-α secretion ([1]; peptide 22.2 μM) [%] | Percent Inhibition of TNF-α secretion ([1]; peptide 37 μM) [%] | Inhibition of TNF-α secretion (percent inhibition) [6] [%] | further results
1 | AIVKLTVYDCIRRRRRRRRR [T3-R^9] | 33 | 65 | 77 | – | – | – | – | – | – | activity compared with P13 (inhibition of TNF-α after stimulation of RAW264.7 cells with CpG) [1]: superior activity; Percent Inhibition of TNF-α secretion, CpG Stimulation ([1]; peptide 7.1 μM): 85%; Percent Inhibition of TNF-α secretion, CpG Stimulation ([1]; peptide 11.1 μM): 92%; Percent Inhibition of TNF-α secretion, CpG Stimulation ([1]; peptide 22 μM): 99%
2 | D-Asp-D-Ile-D-Val-D-Lys-D-Leu-D-Thr-D-Val-D-Tyr-D-Asp-D-Cys-D-Ile ([dD][dI][dV][dK][dL][dT][dV][dY][dD][dC][dI]) [D-P13, stereoisomer of P13 containing all D-amino acid residues] | – | – | – | – | – | – | – | – | – | improvement of hearing thresholds across all frequencies (C3H/HeJ mice; week 2 post-treatment): approximately 20 db; hearing thresholds by ABR across all four frequencies (C3H/HeJ mice; weeks 1 and 2 post-treatment): demonstrated efficacy
3 | DIVKLTVYACIRRRRRRRRR [T11-R^9] | 68 | 81 | 91 | – | – | – | – | – | – | activity compared with P13 (inhibition of TNF-α after stimulation of RAW264.7 cells with CpG) [1]: superior activity
4 | DIVKLTVYDCIRRRRRRRRR [P13-R^9] | 0 | 13 | 69 | – | – | – | – | – | – | Percent Inhibition of TNF-α secretion, CpG Stimulation ([1]; peptide 7.1 μM): 32%; Percent Inhibition of TNF-α secretion, CpG Stimulation ([1]; peptide 11.1 μM): 65%; Percent Inhibition of TNF-α secretion, CpG Stimulation ([1]; peptide 22 μM): 86%; bacterial-induced middle ear inflammation (amount of fluid, infiltrating cell number, thickness of the tympanic membrane) (BALB/c mice [3]): dramatically reduced; cytokine secretion from cell activation initiated independent of TLR stimulation [4]: no effect; cytokine secretion in response to TLR activation ([4]; TLR ligands individually or in combination): effectively inhibited; pro-inflammatory mediators in LPS-induced septic shock (BALB/c mice [5]): reduce pro-inflammatory mediators
5 | EMFTILEEYFMYRGLRRRRRRRRR (C-terminal nona-arginine (R9)) [80(S15)-R^9] | – | – | – | 68 | 81 | 78 | 87 | 91 | 57 | –
6 | EMFTILEEYFMYRGRRRRRRRRR (C-terminal nona-arginine (R9)) [81(S16)-R^9] | – | – | – | 53 | 70 | 84 | 86 | 90 | 26 | –
7 | EMFTILEEYFMYRRRRRRRRR (C-terminal nona-arginine (R9)) [83(S17)-R^9] | – | – | – | 44 | 57 | 72 | 82 | 89 | 0 | –
8 | FITC-labeled P13-R^9: FITC (Fluorescein isothiocyanate) labeled peptide P13-R^9 (SEQ ID NO: 378) (DIVKLTVYDCIRRRRRRRRR; also: FITC label, position not given here) | – | – | – | – | – | – | – | – | – | crossing of the tympanic membrane and association with cells in middle ear fluid (BALB/c mice [7]): crosses the tympanic membrane
9 | FTILEEYFMYRGLLGLRIKYGRLFNEIRRRRRRRRR (C-terminal nona-arginine (R9)) [44(S3)-R^9] | – | – | – | 24 | 78 | 91 | 96 | 95 | 0 | –
10 | MFTILEEYFMYRGLLGLRIKYGRLFNEIRRRRRRRRR (C-terminal nona-arginine (R9)) [43(S2)-R^9] | – | – | – | 51 | 70 | 91 | 94 | 100 | 0 | –
